# Assay results taken from publication PMC8871619, “Pogostone inhibits the activity of CYP3A4, 2C9, and 2E1 in vitro” (Pharmaceutical Biology, 2021).
# How the values were obtained:
# CYP3A4 [1] = molecular target: T1, CYP3A4 (Homo sapiens, UniProt P08684); experiment: Inhibition of CYP3A4 (testosterone 6β-hydroxylation) in human liver microsomes; type: in vitro ADME
# T1 construct: Pooled human liver microsomes (HLMs) were purchased from BD Biosciences; tissue BD Biosciences; host or cells: pooled human liver microsomes
# Experimental: (§1) The effect of pogostone on the activity of CYP450s was investigated with probe reactions (summarized in Table 1) in HLMs in accordance with previous studies (Zhang et al. [2007], [2020]). All incubations were conducted in triplicate with a volume of 200 μL, containing 100 mM potassium phosphate buffer (pH 7.4), NADPH-generating system (1 mM NADP^+, 10 mM glucose-6-phosphate, 1 U/mL of glucose-6-phosphate dehydrogenase, and 4 mM MgCl2), corresponding probe substrates, HLM, and 100 μM pogostone or positive inhibitors. The concentrations of positive inhibitors were: 10 μM furafylline for CYP1A2, 1 μM ketoconazole for CYP3A4, 10 μM tranylcypromine for CYP2A6, 50 μM clomethiazole for CYP2E1, 10 μM quinidine for CYP2D6, 10 μM sulphaphenazole for CYP2C9, 50 μM tranylcypromine for CYP2C19, and 5 μM montelukast for CYP2C8.
# (§2) A 3 min preincubation was performed at 37 °C before the reactions were initiated by the addition of the NADPH-generating system. After the incubation, 100 μL acetonitrile or 10% trichloroacetic (for CYP2A6) was added to terminate the reactions and placed on ice. The mixture was centrifuged at 12,000 rpm for 10 min, and an aliquot (50 μL) of supernatant was transferred for corresponding metabolites analysis with HPLC.
# (§3) The effect of pogostone on the activity of CYP450s was first investigated with 100 μM pogostone in HLMs. Then, the CYPs, of which the activity was inhibited by pogostone were incubated with 0, 2.5, 5, 10, 25, 50, and 100 μM pogostone and different probe substrates (20, 40, 60, and 100 μM testosterone for CYP3A4, 5, 10, 15, and 20 μM diclofenac for CYP2C9, or 25, 50, 150, and 250 μM chlorzoxazone for CYP2E1) to obtained the corresponding kinetic parameters, such as IC50 and Ki values.
# (§4) The Lineweaver-Burk plots were used to obtain enzyme kinetic parameters by the least-squares linear regression of the inverse substrate concentration versus the inverse velocity. Inhibition data from the experiments that were conducted using multiple compound concentrations were represented by Dixon plots, and inhibition constant (Ki) values were calculated using non-linear regression according to the following equation: V=(VmaxS)/(Km(1+I/Ki)+S) where I is the concentration of the compound, Ki is the inhibition constant, S is the concentration of the substrate and Km is the substrate concentration at half the maximum velocity (Vmax) of the reaction. The mechanism of the inhibition was inspected using the Lineweaver–Burk plots and the enzyme inhibition models. The data comparison was performed using the Student’s t-test and performed using IBM SPSS statistics 20 (SPSS Inc., Chicago, IL, USA).
# CYP2C9 [2] = molecular target: T2, CYP2C9 (Homo sapiens, UniProt P11712); experiment: Inhibition of CYP2C9 (diclofenac 4′-hydroxylation) in human liver microsomes; type: in vitro ADME
# T2 construct: Pooled human liver microsomes (HLMs) were purchased from BD Biosciences; tissue BD Biosciences; host or cells: pooled human liver microsomes
# Experimental: as §1, §2, §3, §4
# CYP2E1 [3] = molecular target: T3, CYP2E1 (Homo sapiens, UniProt P05181); experiment: Inhibition of CYP2E1 (chlorzoxazone 6-hydroxylation) in human liver microsomes; type: in vitro ADME
# T3 construct: Pooled human liver microsomes (HLMs) were purchased from BD Biosciences; tissue BD Biosciences; host or cells: pooled human liver microsomes
# Experimental: as §1, §2, §3, §4
# CYP3A4 [4] = molecular target: T1, CYP3A4; experiment: Time-dependent inhibition study of CYP3A4 in human liver microsomes; type: in vitro ADME
# Experimental: (§5) The effect of incubation on the inhibitory effect of pogostone was evaluated by incubating for 0, 5, 10, 15, and 30 min at 37 °C. The concentration of pogostone in the time-dependent inhibition study was 20 μM with the 1 mg/mL HLMs. After incubation, an aliquot (20 μL) was transferred to another incubation tube (a final volume of 200 μL) containing an NADPH-generating system and probe substrates whose final concentrations were approximate to Km. Then, further incubations were performed to measure the residual activity. After being incubated for 10 and 30 min, the reactions were terminated by adding a 100 μL acetonitrile internal standard mix and then placed on ice; the corresponding metabolites were determined by HPLC.
# Further experiments were performed to quantify the time-dependent inhibition by the KI and Kinact values. The incubation was conducted with a higher substrate concentration, which was about 4-fold to Km and 0, 2, 5, 10, 20, and 50 μM pogostone for 0, 5, 10, 15, and 30 min. A two-step incubation scheme was performed as described above.
# CYP2C9 [5] = molecular target: T2, CYP2C9; experiment: Time-dependent inhibition study of CYP2C9 in human liver microsomes; type: in vitro ADME; settings: 20 μM pogostone, 0-30 min, 1 mg/mL HLMs
# Experimental: as §5
# CYP2E1 [6] = molecular target: T3, CYP2E1; experiment: Time-dependent inhibition study of CYP2E1 in human liver microsomes; type: in vitro ADME; settings: 20 μM pogostone, 0-30 min, 1 mg/mL HLMs
# Experimental: as §5
# [7] = set-up: method as in Chen et al. [2013]; settings: rats, oral administration, 5 mg/kg pogostone; ref Chen et al. [2013]; cited from earlier work
# [8] = 100 μM pogostone, HLMs, p < 0.05
# [9] = HLMs, 0-50 μM pogostone, 0-30 min preincubation, substrate about 4-fold Km
# T2 sequence (P11712 whole entry): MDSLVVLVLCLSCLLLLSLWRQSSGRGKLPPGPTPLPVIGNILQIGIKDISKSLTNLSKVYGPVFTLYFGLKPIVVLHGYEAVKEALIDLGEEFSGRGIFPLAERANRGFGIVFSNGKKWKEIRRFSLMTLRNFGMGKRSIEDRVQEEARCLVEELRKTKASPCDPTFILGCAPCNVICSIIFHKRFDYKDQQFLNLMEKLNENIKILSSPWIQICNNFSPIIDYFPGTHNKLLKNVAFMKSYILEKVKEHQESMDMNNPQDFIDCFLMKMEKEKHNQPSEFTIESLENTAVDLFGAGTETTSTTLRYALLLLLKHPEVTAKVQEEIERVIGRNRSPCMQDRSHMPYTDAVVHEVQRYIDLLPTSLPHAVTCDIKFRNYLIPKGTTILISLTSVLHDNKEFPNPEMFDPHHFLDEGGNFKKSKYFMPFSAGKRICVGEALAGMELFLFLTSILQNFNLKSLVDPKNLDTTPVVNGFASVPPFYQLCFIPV
# T1 sequence (P08684 whole entry): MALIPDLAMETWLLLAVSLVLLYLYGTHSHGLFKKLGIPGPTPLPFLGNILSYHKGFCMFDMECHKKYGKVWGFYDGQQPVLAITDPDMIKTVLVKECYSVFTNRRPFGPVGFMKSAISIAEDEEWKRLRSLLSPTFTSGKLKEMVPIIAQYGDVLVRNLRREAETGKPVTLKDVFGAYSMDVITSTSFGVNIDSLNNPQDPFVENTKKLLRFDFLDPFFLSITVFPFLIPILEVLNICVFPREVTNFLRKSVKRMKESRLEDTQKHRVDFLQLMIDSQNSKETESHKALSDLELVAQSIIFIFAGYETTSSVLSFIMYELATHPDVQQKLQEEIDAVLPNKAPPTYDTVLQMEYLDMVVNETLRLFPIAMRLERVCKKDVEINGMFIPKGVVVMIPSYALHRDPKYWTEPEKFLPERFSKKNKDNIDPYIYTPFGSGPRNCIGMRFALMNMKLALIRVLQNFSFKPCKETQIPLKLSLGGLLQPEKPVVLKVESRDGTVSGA
# T3 sequence (P05181 whole entry): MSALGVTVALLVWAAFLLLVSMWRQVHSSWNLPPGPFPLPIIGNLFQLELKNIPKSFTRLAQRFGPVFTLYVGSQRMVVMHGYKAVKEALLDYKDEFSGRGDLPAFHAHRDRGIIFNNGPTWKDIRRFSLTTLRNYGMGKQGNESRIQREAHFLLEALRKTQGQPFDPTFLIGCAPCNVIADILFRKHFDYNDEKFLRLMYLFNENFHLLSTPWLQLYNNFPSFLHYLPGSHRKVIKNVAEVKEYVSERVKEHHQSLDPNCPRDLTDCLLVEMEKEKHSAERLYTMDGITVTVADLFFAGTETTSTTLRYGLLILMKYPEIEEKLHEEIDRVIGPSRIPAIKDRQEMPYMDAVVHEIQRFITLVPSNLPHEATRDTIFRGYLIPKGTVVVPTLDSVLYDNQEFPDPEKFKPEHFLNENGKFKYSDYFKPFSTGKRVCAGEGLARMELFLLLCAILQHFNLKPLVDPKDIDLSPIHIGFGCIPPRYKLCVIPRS
smiles,measurement,setting,value
"Cc1cc(O)c(C(=O)CCC(C)C)c(=O)o1 [pogostone, Pogostone]",Activity of CYP3A4 compared with negative control,CYP3A4 [1]; [8],significantly inhibited
same,IC50,"CYP3A4 [1]; HLMs, 0-100 μM pogostone, testosterone substrate",11.4 µM
same,Ki,"CYP3A4 [1]; HLMs, Lineweaver-Burk, 20-100 μM testosterone",5.69 µM
same,Type of inhibition of CYP3A4,CYP3A4 [1]; Lineweaver-Burk analysis,non-competitive
same,Activity of CYP2C9 compared with negative control,CYP2C9 [2]; [8],significantly inhibited
same,IC50,"CYP2C9 [2]; HLMs, 0-100 μM pogostone, diclofenac substrate",12.1 µM
same,Ki,"CYP2C9 [2]; HLMs, Lineweaver-Burk, diclofenac",6.46 µM
same,Type of inhibition of CYP2C9,CYP2C9 [2]; Lineweaver-Burk analysis,competitive
same,Activity of CYP2E1 compared with negative control,CYP2E1 [3]; [8],significantly inhibited
same,IC50,"CYP2E1 [3]; HLMs, 0-100 μM pogostone, chlorzoxazone substrate",14.9 µM
same,Ki,"CYP2E1 [3]; HLMs, Lineweaver-Burk, 25-250 μM chlorzoxazone",7.67 µM
same,Type of inhibition of CYP2E1,CYP2E1 [3]; Lineweaver-Burk analysis,competitive
same,Effect of incubation time on inhibition of CYP3A4,"CYP3A4 [4]; 20 μM pogostone, 0-30 min, 1 mg/mL HLMs",time-dependent
same,KI value of CYP3A4 (time-dependent inhibition),CYP3A4 [4]; [9],5.86 µM
same,Kinact value of CYP3A4 (time-dependent inhibition),CYP3A4 [4]; [9],0.056 min⁻¹
same,Effect of incubation time on inhibition of CYP2C9,CYP2C9 [5],no significant effect
same,Effect of incubation time on inhibition of CYP2E1,CYP2E1 [6],no significant effect
same,Cmax,[7],28990 ng/mL
